Earlier results as cited in article PMC4522190 (ChemistryOpen, 2015).

System: proteases
Conditions: statement without data

cyclo-RRRWFW (head to tail) [c-WFW]
metabolic stability against proteases (in words): good metabolic stability against proteases
